4 compounds from patent publication US6214872A, “Aryloxyarylsulfonylamino hydroxamic acid derivatives” (Pfizer Inc., priority 1999, dated 2001) can be followed below.

Assay [1] has as its target T1, Human Collagenase (MMP-1) (Homo sapiens, UniProt P03956).
T1 sequence (P03956 100-469): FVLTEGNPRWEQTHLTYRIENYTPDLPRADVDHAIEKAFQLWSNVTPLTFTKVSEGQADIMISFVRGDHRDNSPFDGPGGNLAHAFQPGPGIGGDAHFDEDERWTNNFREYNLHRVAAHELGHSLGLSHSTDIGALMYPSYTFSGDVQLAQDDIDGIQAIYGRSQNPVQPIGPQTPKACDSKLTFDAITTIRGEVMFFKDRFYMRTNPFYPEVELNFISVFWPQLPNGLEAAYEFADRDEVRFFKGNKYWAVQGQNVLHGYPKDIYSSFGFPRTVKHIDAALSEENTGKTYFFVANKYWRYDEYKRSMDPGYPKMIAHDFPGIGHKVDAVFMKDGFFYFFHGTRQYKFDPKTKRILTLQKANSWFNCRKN
The assay can be described thus: Inhibition of Human Collagenase (MMP-1). It is filed as biochemical. Conditions: Table 1; human recombinant collagenase, fluorogenic substrate, room temperature. As to the method: Human recombinant collagenase is activated with trypsin using the following ratio: 10 mg trypsin per 100 mg of collagenase. The trypsin and collagenase are incubated at room temperature for 10 minutes then a five fold excess (50 mg/10 mg trypsin) of soybean trypsin inhibitor is added. 10 mM stock solutions of inhibitors are made up in dimethyl sulfoxide and then diluted using the following Scheme: 10 mM→120 μM→12 μM→1.2 μM→0.12 μM Twenty-five microliters of each concentration is then added in triplicate to appropriate wells of a 96 well microfluor plate. The final concentration of inhibitor will be a 1:4 dilution after addition of enzyme and substrate. Positive controls (enzyme, no inhibitor) are set up in wells D1-D6 and blanks (no enzyme, no inhibitors) are set in wells D7-D12. Collagenase is diluted to 400 ng/ml and […] is then added to appropriate wells of the microfluor plate. Final concentration of collagenase in the assay is 100 ng/ml. Substrate ([…]) is made as a 5 mM stock in dimethyl sulfoxide and then diluted to […] in assay buffer. The assay is initiated by the addition of […] substrate per well of the microfluor plate to give a final concentration of 10 mM. Fluorescence readings (360 nm excitation, 460 nm emission) were taken at time 0 and then at 20 minute intervals. The assay is conducted at room temperature with a typical assay time of 3 hours. Fluorescence vs time is then plotted for both the blank and collagenase containing samples (data from triplicate determinations is averaged). […] The zero time is used as a blank for each compound at each concentration and these values are subtracted from the 120 minute data. Data is plotted as inhibitor concentration vs % control (inhibitor fluorescence divided by fluorescence of collagenase alone×100). IC50 's are determined from the concentration of inhibitor that gives a signal that is 50% of the control. If IC50 's are reported to be <0.03 mM then the inhibitors are assayed at concentrations of 0.3 mM, 0.03 mM, […] and 0.003 mM.

Assay [2] has as its target Human recombinant MMP-13 (collagenase 3) (Homo sapiens, UniProt P45452). Description: Inhibition of MMP-13. It is filed as biochemical. The conditions noted are these: human recombinant MMP-13, fluorogenic substrate. How it is done:
Human recombinant MMP-13 is activated with 2 mM APMA (p-aminophenyl mercuric acetate) for 1.5 hours, at 37° C. and is diluted to […] in assay buffer (50 mM Tris, pH 7.5, 200 mM sodium chloride, 5 mM calcium chloride, […], 0.02% brij). Twenty-five microliters of diluted enzyme is added per well of a 96 well microfluor plate. The enzyme is then diluted in a 1:4 ratio in the assay by the addition of inhibitor and substrate to give a final concentration in the assay of […]. 10 mM stock solutions of inhibitors are made up in dimethyl sulfoxide and then diluted in assay buffer as per the inhibitor dilution scheme for inhibition of human collagenase (MMP-1): Twenty-five microliters of each concentration is added in triplicate to the microfluor plate. The final concentrations in the assay are 30 mM, 3 mM, 0.3 mM, and 0.03 mM. Substrate ([…]) is prepared as for inhibition of human collagenase (MMP-1) and […] is added to each well to give a final assay concentration of 10 mM. Fluorescence readings (360 nm excitation; 450 emission) are taken at time 0 and every 5 minutes for 1 hour. Positive controls consist of enzyme and substrate with no inhibitor and blanks consist of substrate only. IC50 's are determined as per inhibition of human collagenase (MMP-1). If IC50 's are reported to be less than […], inhibitors are then assayed at final concentrations of 0.3 mM, 0.03 mM, 0.003 mM and 0.0003 mM.

“And” between values parts separate entries of the source, which are not always exact repeats. Equal entries are not always repeated.

Turning to `COc1ccc(S(=O)(=O)N(CCC(=O)O)C(C(=O)NO)C2CCCCC2)cc1` (centres unmarked) [cyclohexyl, hydrogen, hydrogen, methoxy], the IC50 is 0.018 µM and 0.022 µM in assay [1]; 0.004 µM and 0.002 µM in assay [2].
In the case of `COc1ccc(S(=O)(=O)N(CCC(=O)O)C2(C(=O)NO)CCCC2)cc1` [cyclopentyl, --, hydrogen, methoxy], the half-maximal inhibitory concentration (IC50) in assay [1] is 0.8 µM and 0.7 µM; in assay [2], 0.021 µM and 0.025 µM.
`CCOC(=O)CCN(C1(C(=O)NO)CCCC1)S(=O)(=O)c1ccc(Oc2ccc(F)cc2)cc1` [Example 1, 3-[[4-(4-FLUOROPHENOXY)BENZENESULFONYL]-(1-HYDROXY-CARBAMOYL CYCLOPENTYL)AMINO]-PROPIONIC ACID ETHYL ESTER]: the IC50 in assay [1] worked out at 0.1 µM; in assay [2], 0.0009 µM.
With `COc1ccc(S(=O)(=O)N(CCC(=O)O)C(C)(C)C(=O)NO)cc1` [methyl, methyl, hydrogen, methoxy], the half-maximal inhibitory concentration (IC50) in assay [1] was 12 µM; in assay [2] it was 0.59 µM and 0.73 µM.

One may read the IC50 as the point on the concentration scale where inhibition reaches its midpoint.
